From patent US20230024302A1, “2,3,5-TRISUBSTITUTED PYRAZOLO[1,5-A]PYRIMIDINE COMPOUNDS” (Arcus Biosciences, Inc., priority 2019, published 2023) come the findings set out here.

Read-outs that look alike come from different tables or passages of the source.

Assay [1] has as its target T1, PI3Kγ (p120γ) (Homo sapiens, UniProt P48736).
T1 construct: purchased Promega V1761
The assay can be described thus: Inhibition of PI3K kinase activity (ADP Glo), PI3Kγ. As to conditions: read-out: biochemical potency (PI3Kγ IC50). In a few lines: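 IC50 values come from a 4-parameter nonlinear fit of ADP-Glo luminescence, which measures ADP produced as PIP2 is phosphorylated to PIP3. The p120γ enzyme (2× stock 8 nM) sat with compound 1 h at rt before substrate (2× stocks: 50 μM ATP, 0.1 mg/ml PIP2) was added. Phosphorylation then proceeded 60 min at rt.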
A general note: ADP-Glo turns the ADP formed in a reaction into a luminescent signal.

The target in assay [2] is T2, PI3Kγ (Homo sapiens, UniProt P48736).
T2 construct: host or cells: THP-1
The assay can be described thus: PI3Kγ cellular assay in THP-1 cells (AKT pS473 AlphaLISA). Type of assay: cell-based. In short, it runs like this: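 Endogenous AKT S473 phosphorylation, detected by AlphaLISA in lysates, serves as the PI3Kγ activity read-out in stimulated, serum-starved THP-1 cells (1.8×10^5/well).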
In general terms: Bead proximity is the source of the signal in Alpha formats.

[3] abbreviates: Table 2, rhMCP-1 stimulated AKT pS473, read-out: cellular potency (PI3Kγ IC50).
The mark [4] stands for this setting: Table 3, rhMCP-1 stimulated AKT pS473, read-out: cellular potency (PI3Kγ IC50).

T1 sequence (P48736 whole entry): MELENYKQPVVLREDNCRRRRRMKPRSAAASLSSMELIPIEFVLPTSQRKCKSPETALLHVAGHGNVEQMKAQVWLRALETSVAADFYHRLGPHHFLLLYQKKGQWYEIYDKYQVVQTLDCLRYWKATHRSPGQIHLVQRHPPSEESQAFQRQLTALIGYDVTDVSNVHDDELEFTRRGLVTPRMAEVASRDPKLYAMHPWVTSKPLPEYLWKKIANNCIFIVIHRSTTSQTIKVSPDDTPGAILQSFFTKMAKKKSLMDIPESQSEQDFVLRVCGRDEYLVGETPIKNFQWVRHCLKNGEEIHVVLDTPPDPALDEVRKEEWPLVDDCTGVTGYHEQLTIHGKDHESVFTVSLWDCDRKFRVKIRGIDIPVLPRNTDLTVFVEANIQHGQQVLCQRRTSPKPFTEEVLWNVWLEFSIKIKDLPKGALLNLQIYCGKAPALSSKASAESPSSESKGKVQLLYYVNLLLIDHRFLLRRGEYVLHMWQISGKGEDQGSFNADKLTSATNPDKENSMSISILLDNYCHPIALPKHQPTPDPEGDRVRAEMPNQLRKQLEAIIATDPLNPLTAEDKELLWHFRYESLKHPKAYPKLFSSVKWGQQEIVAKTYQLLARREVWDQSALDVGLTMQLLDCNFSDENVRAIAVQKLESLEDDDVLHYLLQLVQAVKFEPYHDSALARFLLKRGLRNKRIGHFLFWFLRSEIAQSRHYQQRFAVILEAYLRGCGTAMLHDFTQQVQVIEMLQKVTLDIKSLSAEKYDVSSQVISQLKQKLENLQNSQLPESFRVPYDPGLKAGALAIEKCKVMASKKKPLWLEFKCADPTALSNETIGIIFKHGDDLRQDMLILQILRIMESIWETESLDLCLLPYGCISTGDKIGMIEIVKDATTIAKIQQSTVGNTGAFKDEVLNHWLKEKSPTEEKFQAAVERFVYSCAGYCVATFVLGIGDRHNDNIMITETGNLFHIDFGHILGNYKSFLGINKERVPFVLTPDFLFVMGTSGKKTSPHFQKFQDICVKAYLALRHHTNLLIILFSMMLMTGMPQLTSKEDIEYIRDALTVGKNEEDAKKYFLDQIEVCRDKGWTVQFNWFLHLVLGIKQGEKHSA
T2 sequence (P48736 whole entry): as above

Regarding `Cc1cc(-c2ccn3nc(N)c(C(=O)NC(C)CO)c3n2)cc2c1C(=O)N([C@@H]1CCC[C@@H](O)C1)C2` (some centres unmarked) [Example 325], the IC50 in assay [1] (Table 2, p120γ) is below 100 nM; in assay [2] (setting [3]) it was above 1000 nM.
In the same order, the values of `Cc1cc(-c2ccn3nc(N)c(C(=O)NC(C)CO)c3n2)cc2c1C(=O)N([C@@H]1CCC[C@H](O)C1)C2` (some centres unmarked) [Example 326] are below 100 nM and above 1000 nM.
In the case of `Cc1cc(-c2ccn3nc(N)c(C(=O)NC4CC4)c3n2)cc2c1C(=O)N([C@H]1CCC[C@H](O)C1)C2` [Example 327], the IC50 in assay [1] (Table 2, p120γ) is below 100 nM; in assay [2] (setting [3]), 100 to 1000 nM.
In the case of `Cc1cc(-c2ccn3nc(N)c(C(=O)NC4CC4)c3n2)cc2c1C(=O)N([C@@H]1CCC[C@@H](O)C1)C2` [Example 328], the half-maximal inhibitory concentration (IC50) in assay [1] (Table 2, p120γ) was below 100 nM; in assay [2] (setting [3]) it was 100 to 1000 nM.
Regarding `Cc1cc(-c2ccn3nc(N)c(C(=O)NC(C)CO)c3n2)cc2c1C(=O)N([C@H]1CCC[C@H](O)C1)C2` (some centres unmarked) [Example 329], the half-maximal inhibitory concentration (IC50) in assay [1] (Table 2, p120γ) is below 100 nM; in assay [2] (setting [3]) it was above 1000 nM.
Consider `Cc1cc(-c2ccn3nc(N)c(C(=O)NC(C)CO)c3n2)cc2c1C(=O)N([C@H](C)c1ccncc1)C2` (some centres unmarked) [Example 330], for which the IC50 in assay [1] (Table 2, p120γ) was below 100 nM; in assay [2] (setting [3]) it was above 1000 nM.
Turning to `Cc1cc(-c2ccn3nc(N)c(C(=O)NC4CC4)c3n2)cc2c1C(=O)N([C@H](C)c1ccncc1)C2` [Example 331], the IC50 in assay [1] (Table 2, p120γ) is below 100 nM; in assay [2] (setting [3]), above 1000 nM.
In the same order, the values of `Cc1cc(-c2ccn3nc(N)c(C(=O)NC(C)CO)c3n2)cc2c1C(=O)N([C@H](C)c1cccnc1)C2` (some centres unmarked) [Example 332] are below 100 nM and above 1000 nM.
On to `Cc1cc(-c2ccn3nc(N)c(C(=O)NC4CC4)c3n2)cc2c1C(=O)N([C@H](C)c1cccnc1)C2` [Example 333], for which the half-inhibitory concentration (IC50) in assay [1] (Table 2, p120γ) was below 100 nM; in assay [2] (setting [3]), above 1000 nM.
As to `CC(=O)N1CC(NC(=O)c2c(N)nn3ccc(-c4cc5c(c(C(F)(F)F)c4)C(=O)N([C@@H](C)C4CC4)C5)nc23)C1` [Example 334], the IC50 in assay [1] (Table 3, p120γ) is below 100 nM; in assay [2] (setting [4]), 100 to 1000 nM.
In the same order, the values of `C[C@@H](C1CC1)N1Cc2cc(-c3ccn4nc(N)c(C(=O)NC(C)(C)CO)c4n3)cc(C(F)(F)F)c2C1=O` [Example 335] are below 100 nM and 100 to 1000 nM.
For `C[C@@H](C1CC1)N1Cc2cc(-c3ccn4nc(N)c(C(=O)NCCCS(C)(=O)=O)c4n3)cc(C(F)(F)F)c2C1=O` [Example 336] the same measures were below 100 nM and 100 to 1000 nM.
Take `C[C@@H](C1CC1)N1Cc2cc(-c3ccn4nc(N)c(C(=O)NCCS(C)(=O)=O)c4n3)cc(C(F)(F)F)c2C1=O` [Example 337]: the 50% inhibitory concentration (IC50) in assay [1] (Table 3, p120γ) is below 100 nM; in assay [2] (setting [4]), 100 to 1000 nM.
Regarding `C[C@@H](C1CC1)N1Cc2cc(-c3ccn4nc(N)c(C(=O)NC5(CO)COC5)c4n3)cc(C(F)(F)F)c2C1=O` [Example 338], the IC50 in assay [1] (Table 3, p120γ) was below 100 nM; in assay [2] (setting [4]), 100 to 1000 nM.
In the same order, the values of `COC[C@@H](C)NC(=O)c1c(N)nn2ccc(-c3cc4c(c(C(F)(F)F)c3)C(=O)N([C@@H](C)C3CC3)C4)nc12` [Example 339] are below 100 nM and 100 to 1000 nM.
In the same order, the values of `Nc1nn2ccc(-c3cc4c(c(C(F)(F)F)c3)C(=O)N([C@@H](CO)C3CC3)C4)nc2c1C(=O)NC1CC1` [Example 340] are below 100 nM and 100 to 1000 nM.
For `C[C@@H](O)CCNC(=O)c1c(N)nn2ccc(-c3cc4c(c(C(F)(F)F)c3)C(=O)N([C@@H](C)C3CC3)C4)nc12` [Example 341] the same measures were below 100 nM and 100 to 1000 nM.
`C[C@@H](C1CC1)N1Cc2cc(-c3ccn4nc(N)c(C(=O)NC5(CO)CC5)c4n3)cc(C(F)(F)F)c2C1=O` [Example 342]: the half-maximal inhibitory concentration (IC50) is below 100 nM in assay [1] (Table 3, p120γ) and 100 to 1000 nM in assay [2] (setting [4]).
For the compound `CC[C@H](C)NC(=O)c1c(N)nn2ccc(-c3cc4c(c(C(F)(F)F)c3)C(=O)N([C@@H](C)C3CC3)C4)nc12` [Example 343], the IC50 is below 100 nM in assay [1] (Table 3, p120γ) and 100 to 1000 nM in assay [2] (setting [4]).
For `C[C@@H](C1CC1)N1Cc2cc(-c3ccn4nc(N)c(C(=O)NC[C@@H](O)CO)c4n3)cc(C(F)(F)F)c2C1=O` [Example 344] the same measures were below 100 nM and 100 to 1000 nM.
For `C[C@@H](C1CC1)N1Cc2cc(-c3ccn4nc(N)c(C(=O)N[C@H]5CC[C@@](O)(C(F)(F)F)CC5)c4n3)cc(C(F)(F)F)c2C1=O` [Example 345] the same measures were below 100 nM and 100 to 1000 nM.
As to `C[C@H](O)CCNC(=O)c1c(N)nn2ccc(-c3cc4c(c(C(F)(F)F)c3)C(=O)N([C@@H](C)C3CC3)C4)nc12` [Example 346], the IC50 is below 100 nM in assay [1] (Table 3, p120γ) and 100 to 1000 nM in assay [2] (setting [4]).

In general, IC50 refers to the concentration that gives 50% inhibition.
